Patent US20200316100A1, “HALOALKYL FUCOSE-CONTAINING SELECTIN ANTAGONISTS” (GlycoMimetics, Inc., priority 2016, published 2020)

Target: T1, E-selectin/Ig chimera (Homo sapiens, UniProt P16581)
T1 sequence (P16581 22-556): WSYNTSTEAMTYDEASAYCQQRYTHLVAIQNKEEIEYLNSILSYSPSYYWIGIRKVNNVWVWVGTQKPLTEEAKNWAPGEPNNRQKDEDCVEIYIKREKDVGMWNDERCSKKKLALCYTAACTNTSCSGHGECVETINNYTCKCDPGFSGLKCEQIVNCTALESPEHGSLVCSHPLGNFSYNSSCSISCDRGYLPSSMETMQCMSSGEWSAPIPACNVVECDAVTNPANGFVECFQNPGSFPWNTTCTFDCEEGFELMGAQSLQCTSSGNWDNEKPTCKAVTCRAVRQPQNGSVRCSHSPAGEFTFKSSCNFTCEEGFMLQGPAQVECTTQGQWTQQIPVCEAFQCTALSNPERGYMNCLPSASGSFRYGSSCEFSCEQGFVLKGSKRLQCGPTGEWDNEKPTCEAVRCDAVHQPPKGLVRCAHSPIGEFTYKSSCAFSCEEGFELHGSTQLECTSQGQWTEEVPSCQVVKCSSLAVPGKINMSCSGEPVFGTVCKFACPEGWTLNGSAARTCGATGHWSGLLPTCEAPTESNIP
Experiment: E-Selectin Activity - Alternative Binding Assay (inhibition of sLea binding to immobilized E-selectin/Ig chimera)
Conditions: concentration required to inhibit binding of biotinylated sLea polyacrylamide/streptavidin-HRP conjugate to immobilized E-selectin by 50%; absorbance 450 nm
Protocol: E-selectin/Ig chimera was immobilized in 96 well microtiter plates by incubation at 37° C. for 2 hours. To reduce nonspecific binding, bovine serum albumin was added to each well and incubated at room temperature for 2 hours. The plate was washed and serial dilutions of the test compounds were added to the wells in the presence of conjugates of biotinylated, sLe^a polyacrylamide with streptavidin/horseradish peroxidase and incubated for 2 hours at room temperature.
To determine the amount of sLe^a hound to immobilized E-selectin after washing, the peroxidase substrate, 3,3′,5,5′ tetrametbylbenzidine (TMB) was added. After 3 minutes, the enzyme reaction was stopped by the addition of H3PO4, and the absorbance of light at a wavelength of 450 nm was determined.

IC50: 700 nM
SMILES: CCC1CCCC(OC2OC(CO)C(O)C(OC(CC3CCCCC3)C(=O)O)C2OC(=O)c2ccccc2)C1OC1OC(C(F)(F)F)C(O)C(O)C1O [Compound 75, sodium (5)-2-(((2R,3R,4S,5S,6R)-3-(benzoyloxy)-2-(((1R,2R,3S)-3-ethyl-2-(((2R,3S,4R,5S,6R)-3,4,5-trihydroxy-6-(trifluoromethyl)tetrahydro-2H-pyran-2-yl)oxy)cyclohexypoxy)-5-hydroxy-6-(hydroxymethyl)tetrahydro-2H-pyran-4-yl)oxy)-3-cyclohexylpropanoate]
